Experimental data: patent US20040224981A1, “Antibacterial methods and compositions” (priority 2003, published 2004)
Where two headings read alike, the source gives them in different places.

Legend:
S. aureus = assay: MIC against S. aureus strains and clinical isolates (broth microdilution); assay type: cell-based, Staphylococcus aureus; conditions: for MIC50: read-out: MIC50
Procedure, shortened: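 Broth microdilution per NCCLS in cation-supplemented Mueller-Hinton broth, final inoculum 5×10^5 CFU/ml from 0.5 McFarland suspensions diluted 1:10. Trays incubated aerobically overnight with quality control strains each run. Checkerboard FIC index: ≦0.5 synergy, >0.5 to 4 additive/indifferent, >4.0 antagonism.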

S. pyogenes = assay: MIC against S. pyogenes; assay type: cell-based, Streptococcus pyogenes
Protocol: The MRS inhibitor 4 alone and in combination with mupirocin (mupirocin salt and 1:1 combination) were tested against a collection of Gram-positive pathogens.
S. pyogenes is also a significant skin pathogen and 48 recent clinical isolates were tested for their susceptibility to MRSi compound 5 alone (acetate) and in combination (1:1) with mupirocin (mupirocinate).

[1] = 48 recent clinical isolates of S. pyogenes

C/C(=C\C(=O)OCCCCCCCCC(=O)O)C[C@@H]1OC[C@H](C[C@@H]2O[C@H]2[C@@H](C)[C@H](C)O)[C@@H](O)[C@H]1O [Mupirocin, Pseudomonic acid A]
MIC (S. aureus; Staphylococcus aureus, NRS107, Table 2, S. aureus NRS107 (mupA), read-out: MIC): > 8 µg/mL | MIC (S. aureus; Staphylococcus aureus, NRS107, Table 3, S. aureus NRS107 (mupA), read-out: MIC): > 8 µg/mL | MIC (S. aureus; Staphylococcus aureus, NRS107, Table 4, S. aureus NRS107 (mupA), read-out: MIC): > 8 µg/mL | MIC (S. aureus; Staphylococcus aureus, NRS107, Table 6, high-level mupirocin-resistant S. aureus NRS107, read-out: MIC): > 256 µg/mL | MIC (S. aureus; Staphylococcus aureus, NRS127, Table 6, low-level mupirocin-resistant S. aureus NRS127, read-out: MIC): 32 µg/mL | MIC (S. aureus; Staphylococcus aureus, S. aureus 10-420 (LL Mup. Rest.), read-out: MIC): > 64 µg/mL | MIC (S. aureus; Staphylococcus aureus, S. aureus 14-354 (LL Mup. Rest.), read-out: MIC): 64 µg/mL | MIC (S. aureus; Staphylococcus aureus, S. aureus 25-670 (HL Mup. Rest.), read-out: MIC): > 64 µg/mL | MIC (S. aureus; Staphylococcus aureus, S. aureus 31-1334 (LL Mup Rest.), read-out: MIC): 32 µg/mL | MIC (S. aureus; Staphylococcus aureus, S. aureus 36-1298 (LL Mup. Rest.), read-out: MIC): 32 µg/mL | MIC (S. aureus; Staphylococcus aureus, S. aureus 87-2797 (HL Mup. Rest.), read-out: MIC): > 64 µg/mL | MIC (S. aureus; Staphylococcus aureus, S. aureus 87-2797 (Mup. Susc.), read-out: MIC): 0.25 µg/mL | MIC (S. aureus; Staphylococcus aureus, S. aureus 101-100 (Mup. Susc.), read-out: MIC): < 0.06 µg/mL | MIC (S. aureus; Staphylococcus aureus, S. aureus LZ1 (HL Mup rest.), read-out: MIC): > 64 µg/mL | MIC (S. aureus; Staphylococcus aureus, S. aureus LZ6 (HL Mup rest.), read-out: MIC): > 64 µg/mL | MIC (S. aureus; Staphylococcus aureus, S. aureus LZ8 (LL Mup. Rest.), read-out: MIC): 32 µg/mL | MIC (S. aureus; Staphylococcus aureus, S. aureus LZ9, read-out: MIC): 0.25 µg/mL | MIC (S. aureus; Staphylococcus aureus, S. aureus LZ10, read-out: MIC): 0.25 µg/mL | MIC (S. aureus; Staphylococcus aureus, S. aureus Miles Hall, read-out: MIC): 64 µg/mL | MIC (S. aureus; Staphylococcus aureus, S. aureus Oxford, read-out: MIC): 0.12 µg/mL | MIC (S. aureus; Staphylococcus aureus, Table 6, S. aureus (mupirocin-susceptible) 010-100, read-out: MIC): 0.06 µg/mL | MIC (S. aureus; Staphylococcus aureus, Table 6, S. aureus (mupirocin-susceptible) 087-2789, read-out: MIC): 0.12 µg/mL | MIC (S. aureus; Staphylococcus aureus, Table 6, S. aureus (mupirocin-susceptible) LZ9, read-out: MIC): 0.12 µg/mL | MIC (S. aureus; Staphylococcus aureus, Table 6, S. aureus (mupirocin-susceptible) LZ10, read-out: MIC): 0.12 µg/mL | MIC (S. aureus; Staphylococcus aureus, Table 6, high-level mupirocin-resistant S. aureus 010-420, read-out: MIC): > 256 µg/mL | MIC (S. aureus; Staphylococcus aureus, Table 6, high-level mupirocin-resistant S. aureus 25-670, read-out: MIC): > 256 µg/mL | MIC (S. aureus; Staphylococcus aureus, Table 6, high-level mupirocin-resistant S. aureus 87-2797, read-out: MIC): > 256 µg/mL | MIC (S. aureus; Staphylococcus aureus, Table 6, high-level mupirocin-resistant S. aureus 1079101, read-out: MIC): > 256 µg/mL | MIC (S. aureus; Staphylococcus aureus, Table 6, high-level mupirocin-resistant S. aureus LZ1, read-out: MIC): > 256 µg/mL | MIC (S. aureus; Staphylococcus aureus, Table 6, high-level mupirocin-resistant S. aureus LZ6, read-out: MIC): > 256 µg/mL | MIC (S. aureus; Staphylococcus aureus, Table 6, low-level mupirocin-resistant S. aureus 014-354, read-out: MIC): 16 µg/mL | MIC (S. aureus; Staphylococcus aureus, Table 6, low-level mupirocin-resistant S. aureus 031-1334, read-out: MIC): 16 µg/mL | MIC (S. aureus; Staphylococcus aureus, Table 6, low-level mupirocin-resistant S. aureus 036-1298, read-out: MIC): 16 µg/mL | MIC (S. aureus; Staphylococcus aureus, Table 6, low-level mupirocin-resistant S. aureus 1081148, read-out: MIC): 16 µg/mL | MIC (S. aureus; Staphylococcus aureus, Table 6, low-level mupirocin-resistant S. aureus LZ8, read-out: MIC): 16 µg/mL | MIC (S. aureus; Staphylococcus aureus, Table 6, low-level mupirocin-resistant S. aureus Miles Hall, read-out: MIC): 32 µg/mL | MIC (S. aureus; Staphylococcus aureus, VISA, three of the VISA isolates (poor activity), read-out: MICs): > 8 µg/mL | MIC50 (S. aureus; Staphylococcus aureus, all S. aureus isolates of Table 6): 32 µg/mL | MIC90 (S. aureus; Staphylococcus aureus, all S. aureus isolates of Table 6, read-out: MIC90): > 256 µg/mL | MIC90 (S. aureus; Staphylococcus aureus, all S. aureus strains of Table 1, read-out: MIC 90): > 64 µg/mL | MIC50 (S. aureus; Staphylococcus aureus, oxacillin-resistant S. aureus, Oxa-R (42)): 0.12 µg/mL | MIC90 (S. aureus; Staphylococcus aureus, oxacillin-resistant S. aureus, Oxa-R (42), read-out: MIC90): > 8 µg/mL | MIC (S. aureus; Staphylococcus aureus, oxacillin-resistant S. aureus, Oxa-R (42), read-out: MIC Mode): 0.12 µg/mL | MIC50 (S. aureus; Staphylococcus aureus, oxacillin-susceptible S. aureus, Oxa-S (20)): 0.12 µg/mL | MIC90 (S. aureus; Staphylococcus aureus, oxacillin-susceptible S. aureus, Oxa-S (20), read-out: MIC90): > 8 µg/mL | MIC (S. aureus; Staphylococcus aureus, oxacillin-susceptible S. aureus, Oxa-S (20), read-out: MIC Mode): 0.12 µg/mL | MIC50 (S. aureus; Staphylococcus aureus, recent clinical isolates of S. aureus, All (62)): 0.12 µg/mL | MIC90 (S. aureus; Staphylococcus aureus, recent clinical isolates of S. aureus, All (62), read-out: MIC90): > 8 µg/mL | MIC (S. aureus; Staphylococcus aureus, recent clinical isolates of S. aureus, All (62), read-out: MIC Mode): 0.12 µg/mL | MIC (S. aureus; Table 12, S. aureus 25-670, high level mupirocin-resistant, agent alone): >128 8 g/mL | MIC50 (S. pyogenes; [1]): 0.12 µg/mL | MIC90 (S. pyogenes; [1]): 0.25 µg/mL | Mode (MIC) (S. pyogenes; [1]): 0.12 µg/mL | MIC Range (S. pyogenes; 48 recent clinical isolates of S. pyogenes, in µg/mL): 0.03-0.5 | MIC (S. pyogenes; Streptococcus pyogenes, ATCC19615, Table 2, S. pyogenes ATCC 19615, read-out: MIC): 0.12 µg/mL | MIC (S. pyogenes; Streptococcus pyogenes, Table 2, S. pyogenes MB143 (macrolide rest.), read-out: MIC): 0.12 µg/mL | MIC (S. pyogenes; Table 3, S. pyogenes ATCC 19615): 0.12 µg/mL | MIC (S. pyogenes; Table 3, S. pyogenes MB143 (macrolide rest.)): 0.12 µg/mL | MIC (S. pyogenes; Table 4, S. pyogenes ATCC 19615): 0.12 µg/mL | MIC (S. pyogenes; Table 4, S. pyogenes MB000143): 0.12 µg/mL
